Target: T1, rSult1c2 (Rattus norvegicus, UniProt Q9WUW8)
T1 construct: made in house; host or cells: Salmonella typhimurium TA1538 (cytosolic fraction, enzyme not purified)
Assay: FFA sulfoconjugation assay (N6-MF-A formation with adenosine as scavenger)
Format: biochemical
Summary of the method: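 Cytosols from S. typhimurium TA1538 expressing individual SULTs are incubated at 37 °C for 20 min with FFA plus 10 mM adenosine. Reactions are quenched in methanol containing [15N5]N6-MF-A, and supernatants are analysed by UPLC-MS/MS. Spontaneous, SULT-independent adduct formation is corrected using SULT-deficient cytosols.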

T1 sequence (Q9WUW8 whole entry): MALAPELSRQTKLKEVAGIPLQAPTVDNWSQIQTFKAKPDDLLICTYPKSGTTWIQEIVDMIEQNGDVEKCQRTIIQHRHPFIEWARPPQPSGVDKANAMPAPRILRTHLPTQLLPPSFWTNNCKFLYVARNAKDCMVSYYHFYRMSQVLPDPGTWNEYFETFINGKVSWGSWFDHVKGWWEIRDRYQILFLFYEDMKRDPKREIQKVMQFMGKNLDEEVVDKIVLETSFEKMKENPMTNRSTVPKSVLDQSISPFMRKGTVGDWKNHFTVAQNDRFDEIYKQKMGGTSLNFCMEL

OCc1ccco1 [FFA, furfuryl alcohol]
Rate of N6-MF-A formation (0.1 mM FFA): <18 fmol N ^6-MF-A/mg/min | Rate of N6-MF-A formation (1 mM FFA): <20 fmol N ^6-MF-A/mg/min | Rate of N6-MF-A formation (10 mM FFA): <44 fmol N ^6-MF-A/mg/min
